Laboratory results reported in article PMC4497560 (Bioorganic & medicinal chemistry letters, 2014).

Key:
Format in all cases: biochemical
[1] = biological target: T1, lymphoid tyrosine phosphatase (LYP) (Homo sapiens, UniProt Q9Y2R2); test: LYP enzymatic activity assay, chelator fragments with and without zinc acetate; conditions: for Time dependence of LYP inhibition: incubation 0, 30, 60, 120 min; for Effect on LYP enzymatic activity alone: chelator alone, no added zinc; for Chelator concentration sufficient to restore LYP activity: two equiv
T1 sequence (Q9Y2R2 24-289 limits assumed): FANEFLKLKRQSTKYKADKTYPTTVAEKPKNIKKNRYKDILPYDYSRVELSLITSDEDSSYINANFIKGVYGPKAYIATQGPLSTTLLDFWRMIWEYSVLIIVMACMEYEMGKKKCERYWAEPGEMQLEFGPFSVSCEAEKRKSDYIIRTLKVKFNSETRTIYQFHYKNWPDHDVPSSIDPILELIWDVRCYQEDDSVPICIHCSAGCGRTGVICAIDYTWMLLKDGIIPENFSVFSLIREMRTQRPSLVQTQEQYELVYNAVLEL

PTP1B = test: Inhibition of PTP1B by compound 1h; conditions: Figure 6
CD45 = test: Inhibition of CD45 by compound 1h; conditions: Figure 6
YopH = tested on: YopH
[2] = in the presence of 40 μM zinc acetate

In the case of O=C1C=Cc2ccccc2C1=O [1,2-naphthoquinone, reference compound], the “Time dependence of LYP inhibition” value [1] is reported as “time-dependent manner”.

In the case of CC(=O)[O-].CC(=O)[O-].[Zn+2] [zinc acetate, reference compound], the “Inhibition of LYP” value ([1]; 100 μM zinc(II) acetate, standard assay conditions) is reported as “complete inhibition”, the “LYP activity, % of the control” value ([1]; at 5 μM zinc acetate) is reported as 80% and the “LYP activity, % of the control” value [1, 2] is reported as 20%.

For Oc1ccc2ccccc2c1O [Compound 1h, 1,2-dihydroxynaphthalene], the “Time dependence of LYP inhibition” value [1] was “time-dependent inhibitor”, the “Selectivity for LYP over PTP1B” value (PTP1B) was “modest selectivity” and the “Selectivity for LYP over CD45” value (CD45) was “modest selectivity”. The “Selectivity for LYP over YopH” value (YopH) was “modest selectivity”.

In the case of Oc1ccc(Cl)c2cccnc12 [Compound 12b, 5-chloro-8-quinolol], the “Effect on LYP enzymatic activity alone” value [1] is reported as “little effect”, the “Rescue of LYP from zinc-mediated inhibition” value [1, 2] is reported as “capable of rescuing the enzyme from zinc-mediated inhibition” and the “Chelator concentration sufficient to restore LYP activity” value [1, 2] is reported as 80 µM.

With O=C1C=C(O)C(=O)c2ccccc21 [Compound 5g, 2-hydroxy-1,4-naphthoquinone] the “Inhibition of LYP in the presence of zinc” value ([1]; 5 μM zinc acetate, follow-up studies) was “consistent concentration-dependent inhibition”, the “Inhibition of LYP at the initial time point” value ([1]; absence of zinc, 0 min incubation) was “essentially no inhibition” and the “Combined effect with zinc on LYP inhibition” value ([1]; in the presence of zinc (Figure S2)) was “additive effect”. The “Time dependence of LYP inhibition” value [1] was “time- dependent inhibition”.

In the case of O=C(O)c1cccc(C(=O)O)n1 [Compound 8a, 2,6-pyridine dicarboxylic acid], the “Effect on LYP enzymatic activity alone” value [1] is reported as “little effect”, the “Chelator equivalents (relative to zinc) required to restore LYP activity” value [1, 2] is reported as “slightly more than two equiv” and the “Rescue of LYP from zinc-mediated inhibition” value [1, 2] is reported as “capable of rescuing the enzyme from zinc-mediated inhibition”.

c1ccc(CNCc2ccccn2)nc1 [Compound 3g, di-(2-picolyl)-amine] was tested, and the “Effect on LYP enzymatic activity alone” value [1] was “little effect”, the “Rescue of LYP from zinc-mediated inhibition” value [1, 2] was “capable of rescuing the enzyme from zinc-mediated inhibition” and the “Chelator concentration sufficient to restore LYP activity” value [1, 2] was 80 µM.
